Tests used:
NOD females = test: Spontaneous diabetes in NOD females (incidence, IPGTT, insulitis); format: in vivo, mouse
Protocol: Mice were monitored for diabetes development by testing blood glucose from 10 wk of age by One Touch Profile diabetes tracking system, as described above.
Intraperitoneal glucose tolerance test (IPGTI) was performed in the group of non-diabetic WHI-P131-treated and vehicle-treated control NOD females on the end of experimental period (25 wk of age of NOD mice). Mice were fasted for 10 hours, and the glucose solution (1.5 g/kg body weight) was injected i.p. Before and after injection of glucose, blood samples were taken and blood glucose levels were measured (as described above) at 0, 30, 60 and 120 min time points.
The group of control and WHI-P131-treated non-diabetic NOD females was sacrificed at the end of experimental period, at 25 wksof age, and characteristic histopathologic lesion of islets (insulitis) was evaluated in each mouse scoring at least 25 islets per mouse. Briefly, pancreas was removed, fixed in 10% formalin, parafin embedded, cut and stained with hematoxylin and eosin for light microscopic examinations.

RAMOS (B-ALL) = test: Methylcellulose clonogenic assay; format: cell-based
Protocol: (§1) The antileukemic activity of compound 6 against clonogenic tumor cells was examined using a methylcellulose colony assay system (Uckun, F. M., et al., J. Exp. Med. 163: 347-368, 1986; Messinger, Y., et al., Clin Cancer Res. 4: 165-70, 1998). In brief, cells (10^5/ml in RPMI-10% FBS) were treated overnight at 37° C. with compound 6 at varying concentrations. After treatment, cells were washed twice, plated at 10^4 or 10^5 cells/ml in RPMI-10% FMS-0.9% methylcellulose in Petri dishes, and cultured for 7 days at 37° C. in a humidified 5% CO2 incubator. Subsequently, leukemic cell (or tumor cell) colonies were enumerated using an inverted phase-contrast microscope. The percent inhibition of colony formation was calculated using the following formula:
(§2) % Inhibition=1−mean number of colonies in test culture×100 mean number of colonies in control culture

MOLT-3 (T-ALL) = test: Methylcellulose clonogenic assay; format: cell-based; settings: MOLT-3, 100 μM
Protocol: as §1, §2

DAUDI (B-ALL) = test: Methylcellulose clonogenic assay; format: cell-based
Protocol: as §1, §2

[1] = system: SQ20B (Squamous Carcinoma); test: Methylcellulose clonogenic assay; format: cell-based
Protocol: as §1, §2

M24-MET (Melanoma) = test: Methylcellulose clonogenic assay; format: cell-based
Protocol: as §1, §2

BT20 (Breast Cancer) = test: Methylcellulose clonogenic assay; format: cell-based
Protocol: as §1, §2

HL-60 (AML) = test: Methylcellulose clonogenic assay; format: cell-based; settings: HL-60, 100 μM
Protocol: as §1, §2

COc1cc2ncnc(Nc3ccc(O)cc3)c2cc1OC [WHI-P131, 4-(4′-hydroxyl-phenyl)-amino-6,7-dimethoxyquinazoline]
diabetes incidence (NOD females; 20 mg/kg daily, till 18 wks of age): 56% | age at which mice started to develop diabetes (NOD females; 50 mg/kg daily from 5 wks, control 13 wks): 22 wks | diabetes incidence (NOD females; 50 mg/kg daily, 5 to 25 wks of age, at 25 wks): 18% | diabetes incidence (NOD females; 100 mg/kg, 'the first treatment', at 25 wks of age, p=0.007): 9% | diabetes incidence (NOD females; 100 mg/kg, 'the later one', at 25 wks of age, p=0.025): 18% | age at which diabetes started (NOD females; 100 mg/kg, short course wks 5 to 9): 10 wks | diabetes incidence (NOD females; 100 mg/kg, short course wks 5 to 9, by 25 wks of age): 83% | Insulitis score (NOD females; 100 mg/kg, treated from 5-25 wks of age, controls 1.43±0.15): 0.86±0.12 | Insulitis score (NOD females; 100 mg/kg, treated from 10-25 wks of age): 1.42±0.24 | Mean No. of Colonies/10^5 Cells (RAMOS (B-ALL); 30 μM): 2 (0, 4) | inhibition at 30 µM (RAMOS (B-ALL); Homo sapiens): 99.8% | inhibition at 100 µM (MOLT-3 (T-ALL); Homo sapiens): > 99.9% | Mean No. of Colonies/10^5 Cells (MOLT-3 (T-ALL)): 1 (1, 1) | Mean No. of Colonies/10^5 Cells (DAUDI (B-ALL); DAUDI, 0.3 μM): 2030 (1700, 2360) | Mean No. of Colonies/10^5 Cells (DAUDI (B-ALL); DAUDI, 1 μM): 2136 (1568, 2704) | Mean No. of Colonies/10^5 Cells (DAUDI (B-ALL); DAUDI, 3 μM): 1406 (988, 1824) | Mean No. of Colonies/10^5 Cells (DAUDI (B-ALL); DAUDI, 10 μM): 1149 (1054, 1244) | Mean No. of Colonies/10^5 Cells (DAUDI (B-ALL); DAUDI, 30 μM): 29 (12, 46) | EC50 (DAUDI (B-ALL); Homo sapiens, DAUDI cells, read-out: EC50, inhibition of clonogenic growth): 18.8 µM | inhibition at 0.3 µM (DAUDI (B-ALL); Homo sapiens, DAUDI, 0.3 μM): 48.6% | inhibition at 1 µM (DAUDI (B-ALL); Homo sapiens, DAUDI, 1 μM): 45.9% | inhibition at 3 µM (DAUDI (B-ALL); Homo sapiens, DAUDI, 3 μM): 64.4% | inhibition at 10 µM (DAUDI (B-ALL); Homo sapiens, DAUDI, 10 μM): 70.9% | inhibition at 30 µM (DAUDI (B-ALL); Homo sapiens, DAUDI, 30 μM): 98% | Mean No. of Colonies/10^5 Cells ([1]; 30 μM): 838 (600, 1076) | inhibition at 30 µM ([1]; Homo sapiens): 0% | Mean No. of Colonies/10^5 Cells (M24-MET (Melanoma); 0.3 μM): 312 (238, 386) | Mean No. of Colonies/10^5 Cells (M24-MET (Melanoma); 1 μM): 287 (157, 418) | Mean No. of Colonies/10^5 Cells (M24-MET (Melanoma); 3 μM): 390 (280, 500) | Mean No. of Colonies/10^5 Cells (M24-MET (Melanoma); 10 μM): 301 (249, 353) | Mean No. of Colonies/10^5 Cells (M24-MET (Melanoma); 30 μM): 599 (534, 664) | inhibition at 0.3 µM (M24-MET (Melanoma); Homo sapiens, M24met, 0.3 μM): 0% | inhibition at 1 µM (M24-MET (Melanoma); Homo sapiens, M24met, 1 μM): 0% | inhibition at 3 µM (M24-MET (Melanoma); Homo sapiens, M24met, 3 μM): 0% | inhibition at 10 µM (M24-MET (Melanoma); Homo sapiens, M24met, 10 μM): 0% | inhibition at 30 µM (M24-MET (Melanoma); Homo sapiens, M24met, 30 μM): 0% | Mean No. of Colonies/10^5 Cells (BT20 (Breast Cancer); BT20, 10 μM): 3298 (2940, 3656) | Mean No. of Colonies/10^5 Cells (BT20 (Breast Cancer); BT20, 100 μM): 2190 (1632, 2748) | inhibition at 10 µM (BT20 (Breast Cancer); Homo sapiens, BT-20, BT20, 10 μM): 0% | inhibition at 100 µM (BT20 (Breast Cancer); Homo sapiens, BT-20, BT20, 100 μM): 18.2% | Mean No. of Colonies/10^5 Cells (HL-60 (AML)): 1 (1,1) | inhibition at 100 µM (HL-60 (AML); Homo sapiens): > 99.9%

— patent US6469013B2, “Therapeutic compounds” (Parker Hughes Institute, priority 1998, dated 2002)
